Measured values reported in US9169254B2, “Spiroimidazolone derivative” (Chugai Seiyaku Kabushiki Kaisha, priority 2009, dated 2015).

What follows are molecules tested against T1, human PTH1 receptor (Homo sapiens, UniProt Q03431) (assay: In vitro cAMP signal activity in HKRK-B7 cells (LLC-PK1 cells overexpressing the human PTH1 receptor)). Details: HKRK-B7 cells; compound at 1×10^−3 M; cAMP produced as percentage of that produced by hPTH(1-34) at 100 nM.
T1 sequence (Q03431 27-593): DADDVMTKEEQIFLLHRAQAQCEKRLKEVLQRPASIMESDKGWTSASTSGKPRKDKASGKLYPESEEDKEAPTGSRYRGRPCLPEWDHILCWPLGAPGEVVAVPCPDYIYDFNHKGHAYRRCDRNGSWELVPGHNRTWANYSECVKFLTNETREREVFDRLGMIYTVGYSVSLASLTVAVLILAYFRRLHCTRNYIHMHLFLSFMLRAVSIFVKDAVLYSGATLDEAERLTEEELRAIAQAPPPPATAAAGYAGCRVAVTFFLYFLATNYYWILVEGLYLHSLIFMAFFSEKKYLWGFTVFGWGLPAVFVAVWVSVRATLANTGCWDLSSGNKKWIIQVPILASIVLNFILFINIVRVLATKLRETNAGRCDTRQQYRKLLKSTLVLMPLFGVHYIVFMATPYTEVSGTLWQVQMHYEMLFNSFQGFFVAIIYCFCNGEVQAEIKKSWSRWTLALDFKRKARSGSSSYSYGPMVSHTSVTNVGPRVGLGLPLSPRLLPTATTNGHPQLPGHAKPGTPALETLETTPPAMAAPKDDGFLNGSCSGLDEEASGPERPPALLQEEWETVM
Type: cell-based

SMILES	cAMP production activity (%)
CC(C)=C1CCC(C2=NC3(CCN(S(=O)(=O)CCc4c(C)cc(N(C)C(N)=O)cc4C)CC3)C(=O)N2)CC1 (centres unmarked) [Compound 1310, 1-(4-{2-[2-(4-isopropylidene-cyclohexyl)-4-oxo-1,3,8-triaza-spiro[4.5]dec-1-ene-8-sulfonyl]-ethyl}-3,5-dimethyl-phenyl)-1-methyl-urea]	104
Cc1cc(N(C)C(N)=O)cc(C)c1CCS(=O)(=O)N1CCC2(CC1)N=C(C(C)(F)F)NC2=O [Compound 1311, 1-(4-{2-[2-(1,1-difluoro-ethyl)-4-oxo-1,3,8-triaza-spiro[4.5]dec-1-ene-8-sulfonyl]-ethyl}-3,5-dimethyl-phenyl)-1-methyl-urea]	79
[2H]C([2H])([2H])N(C(N)=O)c1cc(C)c(/C=C/S(=O)(=O)N2CCC3(CC2)N=C(c2ccc(F)c(C(F)(F)F)c2)NC3=O)c(C)c1 [Compound 1312, 1-(4-{(E)-2-[2-(4-fluoro-3-trifluoromethyl-phenyl)-4-oxo-1,3,8-triaza-spiro[4.5]dec-1-ene-8-sulfonyl]-vinyl}-3,5-dimethyl-phenyl)-1-[1,1,1-^2H3]methyl-urea]	105
Cc1cc(CNC(N)=O)cc(C)c1CCS(=O)(=O)N1CCC2(CC1)N=C(C1CCC(CCC(F)(F)F)CC1)NC2=O (centres unmarked) [Compound 1313, [3,5-Dimethyl-4-(2-{4-oxo-2-[4-(3,3,3-trifluoro-propyl)-cyclohexyl]-1,3,8-triaza-spiro[4.5]dec-1-ene-8-sulfonyl}-ethyl)-benzyl]-urea]	87
Cc1cc(CNC(N)=O)cc(C)c1CCS(=O)(=O)N1CCC2(CC1)N=C(C1CCC(C)CC1)NC2=O (centres unmarked) [Compound 1314, (3,5-dimethyl-4-{2-[2-(4-methyl-cyclohexyl)-4-oxo-1,3,8-triaza-spiro[4.5]dec-1-ene-8-sulfonyl]-ethyl}-benzyl)-urea]	78
Cc1cc(N(C)C(N)=O)cc(C)c1/C=C/S(=O)(=O)N1CCC2(CC1)N=C(CCCCCCCCCCCN)NC2=O [Compound 1315, 1-(4-{(E)-2-[2-(11-Amino-undecyl)-4-oxo-1,3,8-triaza-spiro[4.5]dec-1-ene-8-sulfonyl]-vinyl}-3,5-dimethyl-phenyl)-1-methyl-urea]	76
CCC[S+]([O-])CCCCCC1=NC2(CCN(S(=O)(=O)/C=C/c3c(C)cc(N(C)C(N)=O)cc3C)CC2)C(=O)N1 (centres unmarked) [Compound 1316, 1-[3,5-Dimethyl-4-((E)-2-{4-oxo-2-[5-(propane-1-sulfinyl)-pentyl]-1,3,8-triaza-spiro[4.5]dec-1-ene-8-sulfonyl}-vinyl)-phenyl]-1-methyl-urea]	2.9
CC[S+]([O-])CCCCCCC1=NC2(CCN(S(=O)(=O)CCc3c(C)cc(N(C)C(N)=O)cc3C)CC2)C(=O)N1 (centres unmarked) [Compound 1317, 1-(4-{2-[2-(6-ethanesulfinyl-hexyl)-4-oxo-1,3,8-triaza-spiro[4.5]dec-1-ene-8-sulfonyl]-ethyl}-3,5-dimethyl-phenyl)-1-methyl-urea]	3.4
CCCS(=O)(=O)CCCCCC1=NC2(CCN(S(=O)(=O)/C=C/c3c(C)cc(N(C)C(N)=O)cc3C)CC2)C(=O)N1 [Compound 1318, 1-[3,5-Dimethyl-4-((E)-2-{4-oxo-2-[5-(propane-1-sulfonyl)-pentyl]-1,3,8-triaza-spiro[4.5]dec-1-ene-8-sulfonyl}-vinyl)-phenyl]-1-methyl-urea]	19
Cc1cc(N(C)C(N)=O)cc(C)c1/C=C/S(=O)(=O)N1CCC2(CC1)N=C(CCCCCCCS(C)(=O)=O)NC2=O [Compound 1319, 1-(4-{(E)-2-[2-(7-methanesulfonyl-heptyl)-4-oxo-1,3,8-triaza-spiro[4.5]dec-1-ene-8-sulfonyl]-vinyl}-3,5-dimethyl-phenyl)-1-methyl-urea]	5.8
CCS(=O)(=O)CCCCCCC1=NC2(CCN(S(=O)(=O)CCc3c(C)cc(N(C)C(N)=O)cc3C)CC2)C(=O)N1 [Compound 1320, 1-(4-{2-[2-(6-ethanesulfonyl-hexyl)-4-oxo-1,3,8-triaza-spiro[4.5]dec-1-ene-8-sulfonyl]-ethyl}-3,5-dimethyl-phenyl)-1-methyl-urea]	10
Cc1cc(N(C)C(N)=O)cc(C)c1/C=C/S(=O)(=O)N1CCC2(CC1)N=C(CCCCCCCCC(F)F)NC2=O [Compound 1321, 1-(4-{(E)-2-[2-(9,9-Difluoro-nonyl)-4-oxo-1,3,8-triaza-spiro[4.5]dec-1-ene-8-sulfonyl]-vinyl}-3,5-dimethyl-phenyl)-1-methyl-urea]	63
Cc1cc(N(C)C(N)=O)cc(C)c1CCS(=O)(=O)N1CCC2(CC1)N=C(CCCCCCCCCO)NC2=O [Compound 1322, 1-(4-{2-[2-(9-Hydroxy-nonyl)-4-oxo-1,3,8-triaza-spiro[4.5]dec-1-ene-8-sulfonyl]-ethyl}-3,5-dimethyl-phenyl)-1-methyl-urea]	80
Cc1cc(N(C)C(N)=O)cc(C)c1CCS(=O)(=O)N1CCC2(CC1)N=C(CCCCCCCCC(F)F)NC2=O [Compound 1323, 1-(4-{2-[2-(9,9-Difluoro-nonyl)-4-oxo-1,3,8-triaza-spiro[4.5]dec-1-ene-8-sulfonyl]-ethyl}-3,5-dimethyl-phenyl)-1-methyl-urea]	78
Cc1cc(N(C)C(N)=O)cc(C)c1CCS(=O)(=O)N1CCC2(CC1)N=C(CCCCCCCCCN)NC2=O [Compound 1324, 1-(4-{2-[2-(9-Amino-nonyl)-4-oxo-1,3,8-triaza-spiro[4.5]dec-1-ene-8-sulfonyl]-ethyl}-3,5-dimethyl-phenyl)-1-methyl-urea]	1.0
Cc1cc(N(C)C(N)=O)cc(C)c1/C=C/S(=O)(=O)N1CCC2(CC1)N=C(CCCCCCCCCF)NC2=O [Compound 1325, 1-(4-{(E)-2-[2-(9-Fluoro-nonyl)-4-oxo-1,3,8-triaza-spiro[4.5]dec-1-ene-8-sulfonyl]-vinyl}-3,5-dimethyl-phenyl)-1-methyl-urea]	113
Cc1cc(N(C)C(N)=O)cc(C)c1/C=C\S(=O)(=O)N1CCC2(CC1)N=C(CCCCCCCCCF)NC2=O [Compound 1326, 1-(4-{(Z)-2-[2-(9-fluoro-nonyl)-4-oxo-1,3,8-triaza-spiro[4.5]dec-1-ene-8-sulfonyl]-vinyl}-3,5-dimethyl-phenyl)-1-methyl-urea]	84
Cc1cc(N(C)C(N)=O)cc(C)c1CCS(=O)(=O)N1CCC2(CC1)N=C(CCCCCCCCCF)NC2=O [Compound 1327, 1-(4-{2-[2-(9-Fluoro-nonyl)-4-oxo-1,3,8-triaza-spiro[4.5]dec-1-ene-8-sulfonyl]-ethyl}-3,5-dimethyl-phenyl)-1-methyl-urea]	92
Cc1cc(OC[C@H](O)CO)cc(C)c1CCS(=O)(=O)N1CCC2(CC1)N=C(c1cccc(OCCCC(F)(F)C(F)(F)F)c1)NC2=O [Compound 1328, 8-{2-[4-((R)-2,3-Dihydroxy-propoxy)-2,6-dimethyl-phenyl]-ethanesulfonyl}-2-[3-(4,4,5,5,5-pentafluoro-pentyloxy)-phenyl]-1,3,8-triaza-spiro[4.5]dec-1-en-4-one]	93
Cc1cc(OC[C@H](O)CO)cc(C)c1CCS(=O)(=O)N1CCC2(CC1)N=C(c1ccc(F)c(OC(F)(F)F)c1)NC2=O [Compound 1329, 8-{2-[4-((R)-2,3-dihydroxy-propoxy)-2,6-dimethyl-phenyl]-ethanesulfonyl}-2-(4-fluoro-3-trifluoromethoxy-phenyl)-1,3,8-triaza-spiro[4.5]dec-1-en-4-one]	85
Cc1cc(OC[C@H](O)CO)cc(C)c1CCS(=O)(=O)N1CCC2(CC1)N=C(c1ccc3c(c1)OC(F)(F)O3)NC2=O [Compound 1330, 2-(2,2-difluoro-benzo[1,3]dioxol-5-yl)-8-{2-[4-((R)-2,3-dihydroxy-propoxy)-2,6-dimethyl-phenyl]-ethanesulfonyl}-1,3,8-triaza-spiro[4.5]dec-1-en-4-one]	9.2
Cc1cc(C(=O)N2CCC(O)CC2)cc(C)c1CCS(=O)(=O)N1CCC2(CC1)N=C(c1ccc3c(c1)OC(F)(F)O3)NC2=O [Compound 1333, 2-(2,2-difluoro-benzo[1,3]dioxol-5-yl)-8-{2-[4-(4-hydroxy-piperidine-1-carbonyl)-2,6-dimethyl-phenyl]-ethanesulfonyl}-1,3,8-triaza-spiro[4.5]dec-1-en-4-one]	109
Cc1cc(C(=O)N2CCC(O)CC2)cc(C)c1CCS(=O)(=O)N1CCC2(CC1)N=C(c1ccc(F)c(OC(F)(F)F)c1)NC2=O [Compound 1334, 2-(4-fluoro-3-trifluoromethoxy-phenyl)-8-{2-[4-(4-hydroxy-piperidine-1-carbonyl)-2,6-dimethyl-phenyl]-ethanesulfonyl}-1,3,8-triaza-spiro[4.5]dec-1-en-4-one]	116
